The term IC50 denotes the concentration needed to halve the response being measured. A lower IC50 goes with greater potency.

The text below walks through data of paper PMC12844124, “Synthesis and Study of Substituted Chalcones Combined with Fluoroazobenzenes—New Photoswitches for Application in Biological Systems” (Molecules, 2026).

Type in all cases: cell-based, human
The test system of test [1] is BJ fibroblasts. Put plainly: MTS cell proliferation assay, BJ fibroblasts. The following applies: for IC50: Homo sapiens, Fibroblast. As for the experimental part: (§1) Human BJ fibroblasts (American Type Cell Culture Collection, Manassas, VA, USA, CRL-2522) and human prostate cancer cell line PC-3 (American Type Cell Culture Collection, Manassas, VA, USA, CRL-1435), derived from bone metastases, were routinely grown in […]) Medium (ThermoFisher, Waltham, MA, USA, 21127-022) and supplemented with heat-inactivated 10% Fetal Bovine Serum (Biowest, France, […]) and 1% antibiotic solution (Biowest, Nuaillé, France, L0022), in a humidified 5% CO2 atmosphere at 37 °C. Cells were used between 3 and 20 passages. The 96-well plates were prepared by seeding 5 × 10^3 or 2.5 × 10^3 cells per well, for 24 and 48 h treatments, respectively, with at least five technical and two biological repeats. […] The cells were treated with either the Z conformer of 17j, with continuous illumination with 525 nm light, or the E conformer. The Z conformer was prepared by illuminating its DMSO solution with 525 nm light overnight. The cell proliferation was analyzed with CellTiter Aqueous One Solution Cell Proliferation MTS (3-(4,5-dimethylthiazol-2-yl)-5-(3-carboxymethoxyphenyl)-2-(4-sulfophenyl)-2H-tetrazolium) Assay (Promega, Madison, WI, USA, G5430) after 24 or 48 h of treatment. The absorbance was measured at 490 and 670 nm with FLUOStar Omega plate reader (BMG LABTECH GmbH, Ortenberg, Germany). The statistical analysis was performed within R 4.5.1 project. […] The log-logistic four parametric model (4PL), with the lower limit boundary set to 0 and group fitting, was used, as available in the drc package, to fit cell proliferation data. The residuals were checked for normality with QQ and density plots and considered as sufficiently normally distributed. The assessment metrics for model goodness of fit were performed with functions available in the drc package and with custom ones. When appropriate, the delta method was applied to obtain error of central tendency. To assess the goodness of fit for each of the biological replicates, deviance R^2 (DR^2) was calculated and assessed. […] The DR^2 was calculated according to the following Equation: 1 - (Dres/Dnull), where Dres-residual deviance and Dnull-null deviance (deviance of the model with mean as a predicted value). The null hypothesis was assessed with the two-way ANOVA with Tukey's post hoc test for multiple comparisons or with the two-way t-test when only two groups were compared. The differences in the cell cycle percentages were assessed with the two-way ANOVA with Tukey's post hoc test.

Test [2] concerns PC-3 cells. Put plainly: MTS cell proliferation assay, PC-3. The following applies: for IC50: Homo sapiens. How it is done: as §1, with “The residuals were checked for normality with QQ and density plots and considered as sufficiently normally distributed.” left out
Background: Tetrazolium assays rely on reduction of a dye to a coloured formazan, in cell work by metabolically active cells.

Test [3] deals with BJ fibroblasts. The experiment in a line: Cell cycle analysis by flow cytometry, BJ fibroblasts. The following applies: Z conformer, concentration not given. As for the experimental part: The BJ or PC-3 cells were treated as described previously, with the exception that 0.15 × 10^6 cells per well were seeded in 6-well plates. After 24 h of treatment, cells were harvested by trypsinization (Biowest, Nuaillé, France, L0931), washed twice, resuspended in PBS, and added to cold 70% ethanol for overnight fixation at −20 °C. Subsequently, cells were centrifuged and resuspended in PBS containing 5 µg/mL of propidium iodide in PBS (Sigma-Aldrich, St. Louis, MO, USA, 4170), 0.1% Triton X-100, and 10 µg/mL of DNAse-free RNAse (A&A Biotechnology, Gdansk, Poland, 1006-10) in the dark for 4 h at 37 °C. FACS analysis was performed using a FACSCanto II flow cytometer and FACSDiva, version 9.0 software (BD Biosciences, San Jose, CA, USA). Flow rate was set to about 1000 events/cells per second. Signals from at least 10,000 events per sample were captured. The percentages of PC-3 cells in cell cycle phases (G0/G1, S, and G2/M) were determined using ModFit LT 4.1.7 (Verity Software House, Topsham, ME, USA).
Background: A flow cytometer gives signals particle by particle.

As to `COc1cc(/C=C/C(=O)c2cccc(/N=N/c3c(F)cccc3F)c2)cc(OC)c1` [Compound 17j], the “growth inhibition (normalized asymptote)” value amounted to 5.3 ± 1.2% in test [1] (E conformer, 48 h); 18.7 ± 9.7% in test [1] (Z conformer, 24 h); 13.3 ± 6.1% in test [1] (Z conformer, 48 h). The concentration for half-maximal inhibition (IC50) in test [1] (24 h, E conformer, 24 h treatment) is 6.59 ± 0.38 µM; in test [1] (24 h, Z conformer, 24 h treatment), 10.1 ± 1.4 µM; in test [1] (48 h, E conformer, 48 h treatment), 2.66 ± 0.15 µM; in test [1] (48 h, Z conformer, 48 h treatment), 4.02 ± 0.39 µM; in test [2] (PC-3, 24 h, E conformer, 24 h incubation), 14.6 ± 1 µM; in test [2] (PC-3, 24 h, Z conformer, 525 nm illumination, 24 h treatment) it was 12 ± 4.42 µM. The IC50 in test [2] (PC-3, 48 h, E conformer, 48 h incubation) worked out at 5.8 ± 0.8 µM; in test [2] (PC-3, 48 h, Z conformer, 525 nm illumination, 48 h treatment) it was 4.75 ± 1 µM. The “IC50 difference between PC-3 and BJ cells” value in test [2] (E conformer) was found to be 2.2 fold. The “normalized asymptote (normalized limit)” value in test [2] (E conformer, 24 h) is listed as 50.0 ± 9.9%; in test [2] (E conformer, 48 h), 15.0 ± 0.2%. Besides, the “normalized asymptote (ratio of lower to upper asymptote)” value came out at 44.9 ± 3.7% in test [2] (Z conformer, 24 h) and 0.9 ± 0.9% in test [2] (Z conformer, 48 h). The “cells undergoing the G0/G1 phase” value in test [3] (decrease from 86.4) is on record as 51.5%. In addition, the “cells in the S phase” value in test [3] (increase from 0.4) turned out to be 8%. Further, in test [3] (increase from 11.9), the “cells in the G2/M phase” value is recorded as 15.6%.
